Experimental data from patent US11440886B2, “Anti-inflammatory compound, and preparation and use thereof” (E-Nitiate Biopharmaceuticals (Hangzhou) Co., Ltd., priority 2018, dated 2022).

The molecules below were run against human recombinant PDE4B1 enzyme (Homo sapiens (Human), UniProt Q07343) (assay: Inhibition of PDE4B1 activity by cAMP HTRF assay). Conditions: human recombinant PDE4B1, cAMP 40 nM, pH 7.4.
Chain of human recombinant PDE4B1 enzyme (Q07343 whole entry): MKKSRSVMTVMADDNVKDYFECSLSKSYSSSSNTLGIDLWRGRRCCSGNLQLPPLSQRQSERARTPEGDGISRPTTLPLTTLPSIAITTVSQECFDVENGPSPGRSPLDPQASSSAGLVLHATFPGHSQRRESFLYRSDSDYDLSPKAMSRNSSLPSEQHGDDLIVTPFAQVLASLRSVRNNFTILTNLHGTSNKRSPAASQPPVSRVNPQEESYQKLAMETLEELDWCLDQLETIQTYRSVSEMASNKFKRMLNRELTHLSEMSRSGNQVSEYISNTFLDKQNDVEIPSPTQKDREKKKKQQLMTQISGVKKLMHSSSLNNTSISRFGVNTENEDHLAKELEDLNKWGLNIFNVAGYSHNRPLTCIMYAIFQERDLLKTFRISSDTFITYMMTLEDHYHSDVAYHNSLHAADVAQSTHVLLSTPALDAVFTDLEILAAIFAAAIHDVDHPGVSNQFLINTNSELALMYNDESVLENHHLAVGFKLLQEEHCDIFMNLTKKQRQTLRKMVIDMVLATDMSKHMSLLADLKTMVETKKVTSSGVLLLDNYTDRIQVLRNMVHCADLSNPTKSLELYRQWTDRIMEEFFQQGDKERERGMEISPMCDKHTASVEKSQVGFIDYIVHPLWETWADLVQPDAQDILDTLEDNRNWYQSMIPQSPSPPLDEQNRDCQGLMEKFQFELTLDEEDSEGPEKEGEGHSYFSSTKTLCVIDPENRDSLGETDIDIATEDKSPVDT
Assay type: biochemical
Protocol: Determination of the inhibition of the compounds on PDE4B1 activity by using cAMP HTRF® assay
The inhibitory effect of the compounds on human PDE4B1 enzyme activity was determined by quantifying the 5′-adenosine monophosphate (5′-AMP) formed from 3′,5′-cyclic adenosine monophosphate (cAMP).
The test compound or water (control) and human recombinant PDE4B1 enzyme (4.8 U) were mixed in a buffer solution (pH 7.4) consisting of 1× Hanks' balanced salt solution (HBSS), 5 mM HEPES, 3 mM MgCl2, and 0.1% BSA and incubated for 10 min. A cAMP enzyme substrate (final concentration 40 nM) was added, and the mixture was incubated at room temperature for 60 min. Then a fluorescent acceptor (Dye2 labeled with cAMP), a fluorescent donor (anti-cAMP antibody labeled with europium cryptate) and a non-specific phosphodiesterase inhibitor IBMX (3-isobutyl-1-methyl xanthine; final concentration 1 mM) were added. After 60 min, the fluorescence transfer related to the amount of remaining cAMP was measured on a microplate reader (Rubystar, BMG) at λex=337 nm, λem=620 nm and λem=665 nm. The enzyme activity is calculated from the ratio of the signals measured at 665 nm and 620 nm. The results are expressed as percent inhibition of the enzyme activity of the control (without PDE4 inhibitor). The enzyme was omitted for measurement of the basic control. The IC50 value (IC50=the concentration that caused the half-maximum inhibition of the specific activity of the control) is derived from dose-response measurements with eight different concentrations (n=2; repeated 2 times)
`CO/N=C(\Cn1c(C)cc(=O)cc1C)c1ccc(OC)c(OCC2CC2)c1` [Example 39, (Z)-1-(2-(3-cyclopropylmethoxy-4-methoxyphenyl)-2-(methoxyimido)ethyl)-2,6-dimethylpyridin-4(1H)-one] was tested, and the IC50 was 1070 nM. `CNC(=O)COc1cc(/C=C/n2c(C)cc(=O)cc2C)ccc1OC` [Example 71, (E)-2-(5-(2-(2,6-dimethyl-4-carbonylpyridin-1(4H)-yl)ethenyl)-2methoxyphenoxy)-N-methylacetamide] showed an IC50 of 1420 nM. For `COc1ccc(C(=O)Cn2c(C)cc(=O)cc2C)cc1OC1CC=CC1` [Example 25, 1-(2-(3-(cyclopent-3-en-1-yloxy)-4-methoxyphenyl)-2-oxoethyl)-2,6-dimethylpyridin-4(1H)-one], the IC50 was 11.5 nM. Work on `Cc1cc(=O)cc(C)n1/C=C/c1ccc(OC(F)F)c(OC2CCSC2)c1` (stereo not shown) [Example 96, (E)-1-((3-(tetrahydrothiophen-3-yl)oxy-4-difluoromethoxy)-styryl)-2,6-dimethylpyridin-4(1H)-one] yielded an IC50 of 2.4 nM. For `CC#CC(=O)OC(Cn1c(C)cc(=O)cc1C)c1ccc(OC)c(OCC2CC2)c1` (stereo not shown) [Example 8, (1-(3-cyclopropylmethoxy-4methoxyphenyl)-2-(2,6-dimethyl-4-carbonylpyridin-1(4H)-yl)ethyl) but-2-ynoate], the IC50 was 23 nM. `COc1ccc(/C=C/n2c(C)cc(=O)cc2C)cc1OCC(C)C` [Example 56, (E)-1-(3-iso-butoxy-4-methoxystyryl)-2,6-dimethylpyridin-4(1H)-one] showed an IC50 of 16 nM. Molecule `COc1ccc(C(=O)Cn2c(C)cc(=O)cc2C)cc1OCC[S+](C)[O-]` (stereo not shown) [Example 36, 1-(2-(3-methylsulfoxideethoxy-4-methoxyphenyl)-2-oxoethyl)-2,6-dimethylpyridin-4(1H)-one] has an IC50 of 1250 nM. With `COc1ccc(/C(=C/n2c(C)cc(=O)cc2C)C(=O)N(C)C)cc1OCC1CC1` [Example 109, (Z)-2-(3-cyclopropylmethoxy-4-methoxyphenyl)-3-(2,6-dimethyl-4-carbonylpyridin-1(4H)-yl)-N,N-dimethylacrylamide] the IC50 was 180 nM. In the case of `CC#CCOc1cc(/C=C/n2c(C)cc(=O)cc2C)ccc1OC` [Example 67, (E)-1-(3-(but-2-yn-1-yloxy)-4-methoxystyryl)-2,6-dimethylpyridin-4(1H)-one], the IC50 is reported as 170 nM. Work on `Cc1cc(=O)cc(C)n1/C=C/c1ccc(OC(F)F)c(O[C@@H]2CCSC2)c1` [Example 100, (R,E)-1-(3-(tetrahydrothiophen-3-yl)oxy-4-difluoromethoxystyryl)-2,6-dimethylpyridin-4(1H)-one] yielded an IC50 of 1.5 nM. With `COc1ccc(C(=O)Cn2ccc(=O)cc2C)cc1OCC1CC1` [Example 46, 1-(2-(3-cyclopropylmethoxy-4-methoxyphenyl)-2-oxoethyl)-2-methylpyridin-4(1H)-one] the IC50 was 25 nM. `Cc1cc(=O)cc(C)n1/C=C/c1ccc(OC(F)F)c(O[C@H]2CCSC2)c1` [Example 97, (S,E)-1-(3-(tetrahydrothiophen-3-yl)oxy-4-difluoromethoxystyryl)-2,6-dimethylpyridin-4(1H)-one] gave an IC50 of 3.7 nM. `COc1ccc(/C(=C/n2c(C)cc(=O)cc2C)c2ccccc2)cc1OCC1CC1` [Example 104-1, (E)-1-(2-(3-cyclopropylmethoxy-4-methoxyphenyl)-2-phenylethenyl)-2,6-dimethylpyridin-4(1H)-one] was tested, and the IC50 was 1700 nM. `COc1ccc(C2CC2n2c(C)cc(=O)cc2C)cc1OCC1CC1` (stereo not shown) [Example 48, 1-(2-(3-cyclopropylmethoxy-4-methoxyphenyl)cyclopropyl)-2,6-dimethylpyridin-4(1H)-one] showed an IC50 of 420 nM. `Cc1cc(=O)cc(C)n1/C=C/c1ccc(OC(F)F)c(O[C@@H]2CCS(=O)(=O)C2)c1` [Example 102, (R,E)-1-(3-(1,1-dioxotetrahydrothiophen-3-yl)oxy-4-difluoromethoxystyryl)-2,6-dimethylpyridin-4(1H)-one] was tested, and the IC50 was 50 nM. Molecule `COc1ccc(C(=O)Cn2c(C)cc(=O)cc2C)cc1OCSC` [Example 32, 1-(2-(3-methylthiomethoxy-4-methoxyphenyl)-2-oxoethyl)-2,6-dimethylpyridin-4(1H)-one] has an IC50 of 13.9 nM. `COc1ccc(/C=C/n2c(C)cc(=O)cc2C)cc1OC1CSC1` [Example 69, (E)-1-((3-(thiacyclobutan-3-yl-oxy)-4-methoxy)-styryl)-2,6-dimethylpyridin-4(1H)-one] showed an IC50 of 5200 nM. In the case of `CCCCCCOc1cc(C(=O)Cn2c(C)cc(=O)cc2C)ccc1OC` [Example 18, 1-(2-(3-n-hexyloxy-4-methoxyphenyl)-2-oxoethyl)-2,6-dimethylpyridin-4(1H)-one], the IC50 is reported as 4.5 nM. `COc1ccc(C(=O)Cn2c(C)cc(=O)cc2C)cc1OC1COC1` [Example 30, 1-(2-(3-(oxacyclobutan-3-yl-oxy)-4-methoxyphenyl)-2-oxoethyl)-2,6-dimethylpyridin-4(1H)-one] showed an IC50 of 116 nM. `COc1ccc(/C(Cn2c(C)cc(=O)cc2C)=N\O)cc1OCC1CC1` [Example 38-2, (E)-1-(2-(3-cyclopropylmethoxy-4-methoxyphenyl)-2-(hydroxyimido)ethyl)-2,6-dimethylpyridin-4(1H)-one] showed an IC50 of 71 nM. `Cc1cc(=O)cc(C)n1/C=C/c1ccc(OC(F)F)c(O[C@H]2CC[S+]([O-])C2)c1` (single isomer, unassigned) [Example 98-2] showed an IC50 of 12.5 nM. In the case of `COc1ccc(/C=C/n2c(C)cc(=O)cc2C)cc1OC(=O)C1CC1` [Example 72, (E)-1-((3-cyclopropylformyloxy-4-methoxy)-styryl)-2,6-dimethylpyridin-4(1H)-one], the IC50 is reported as 3900 nM. `CC#CCOC(Cn1c(C)cc(=O)cc1C)c1ccc(OC)c(OCC2CC2)c1` (stereo not shown) [Example 9, 1-(2-(but-2-yn-1-yloxy)-2-(3-cyclopropylmethoxy-4-methoxyphenyl)ethyl)-2,26-dimethylpyridin-4-(1H)-one] was tested, and the IC50 was 25 nM. With `CC#CCOc1cc(C(=O)Cn2c(C)cc(=O)cc2C)ccc1OC` [Example 29, 1-(2-(3-(but-2-yn-1-yloxy)-4-methoxyphenyl)-2-oxoethyl)-2,6-dimethylpyridin-4(1H)-one] the IC50 was 93 nM. `COc1ccc(C(Cn2c(C)cc(=O)cc2C)OC(=O)C2CC2)cc1OCC1CC1` (stereo not shown) [Example 4, (1-(3-cyclopropylmethoxy-4methoxyphenyl)-2-(2,6-dimethyl-4-carbonylpyridin-1(4H)-yl)ethyl) cyclopropylcarboxylate] gave an IC50 of 36 nM. For `COc1ccc(/C=C/n2c(C)cc(=O)cc2C)cc1O[C@H]1CCSC1` [Example 82, (S,E)-1-(3-(tetrahydrothiophen-3-yl)oxy-4-methoxystyryl)-2,6-dimethylpyridin-4(1H)-one], the IC50 was 7.5 nM. Work on `COc1ccc(C(=O)Cn2c(C)cc(=O)cc2C)cc1OCC1CCC1` [Example 22, 1-(2-(3-cyclobutylmethoxy-4-methoxyphenyl)-2-oxo)ethyl-2,6-dimethylpyridin-4(1H)-one] yielded an IC50 of 20 nM. For `C/C=C/C(=O)OC(Cn1c(C)cc(=O)cc1C)c1ccc(OC)c(OCC2CC2)c1` (stereo not shown) [Example 6, (1-(3-cyclopropylmethoxy-4methoxyphenyl)-2-(2,6-dimethyl-4-carbonylpyridin-1(4H)-yl)ethyl) crotonate], the IC50 was 19 nM. Work on `COc1ccc(/C=C/n2ccc(=O)cc2C)cc1OCC1CC1` [Example 51, (E)-1-(3-cyclopropylmethoxy-4-methoxystyryl)-2-methylpyridin-4(1H)-one] yielded an IC50 of 57 nM. `Cc1cc(=O)cc(C)n1/C=C/c1ccc(OC(F)F)c(O[C@@H]2CC[S+]([O-])C2)c1` (single isomer, unassigned) [Example 101-2] showed an IC50 of 26 nM. Molecule `Cc1cc(=O)cc(C)n1CC(=O)c1ccc(OC(F)F)c(OCC2CC2)c1` [Example 49, 1-(2-(3-cyclopropylmethoxy-4-difluoromethoxyphenyl)-2-oxoethyl)-2,6-dimethylpyridin-4(1H)-one] has an IC50 of 2.9 nM. In the case of `COc1ccc(/C(C)=C/n2c(C)cc(=O)cc2C)cc1OCC1CC1` [Example 103, (E)-1-(2-(3-cyclopropylmethoxy-4-methoxyphenyl)-2-methylethenyl)-2,6-dimethylpyridin-4(1H)-one], the IC50 is reported as 14 nM. Molecule `COc1ccc(/C(=C\n2c(C)cc(=O)cc2C)c2ccccc2)cc1OCC1CC1` [Example 104-2, (Z)-1-(2-(3-cyclopropylmethoxy-4-methoxyphenyl)-2-phenylethenyl)-2,6-dimethylpyridin-4(1H)-one] has an IC50 of 8400 nM. `COc1ccc(/C=C/n2c(C)cc(=O)cc2C)cc1OC1CCS(=O)(=O)C1` (stereo not shown) [Example 81, (E)-1-(3-((1,1,-dioxotetrahydrothiophen-3-yl)oxy)-4-methoxystyryl)-2,6-dimethylpyridin-4(1H)-one] showed an IC50 of 1.15 nM.
